Reference: patent US9822115B2, “Nitrogen containing compounds and their use as antibacterial agents” (WOCKHARDT LIMITED, priority 2014, dated 2017)
Values after ≈ are worked out from the molar mass of the structure shown. Where a name gives a salt, the structure may show the parent alone. Read-outs that look alike come from different tables or passages of the source.

Assays:
[1] = target: T1, Class A beta-lactamase, K. pneumoniae ATCC 700603 (SHV 18) (Klebsiella pneumoniae, UniProt P0AD64, E235K/G234A/R39S); assay: biochemical
T1 construct: preincubated mixture of crude enzyme and the agents; endogenous in cells; host or cells: K. pneumoniae ATCC 700603
Description: (§1) Determination of enzyme inhibition activity: Concentration of the inhibitor required to inhibit 50% of enzymatic activity was measured by adding a chromogenic substrate, Nitrocefin (100 uM, 5 min) to the preincubated mixture of crude enzyme and the agents (37° C., 10 min). Absorbance was measured at 485 nm by UV-spectrophotometer. The IC50 was calculated by plotting absorbance against concentration through Sigmoidal dose response curve using Graph Pad software.
(§2) The enzyme inhibition was expressed as IC50.

[2] = tested on: K. pneumoniae H521 (KPC, SHV, TEM); assay: Antibacterial activity, MIC by agar dilution (CLSI); assay type: cell-based
Description: (§3) The biological activity of representative compounds according to the invention against various bacterial strains was investigated. In a typical study, overnight grown bacterial cultures were diluted appropriately and inoculated on the agar media containing doubling dilutions of the test compounds. Observations for growth or no growth was performed after 16-20 hours of incubation at 35±2° C. in the ambient air. The overall procedure was performed as per Clinical and Laboratory Standards Institute (CLSI) recommendations, (Clinical and Laboratory Standards Institute (CLSI), Performance Standards for Antimicrobial Susceptibility Testing, 20th Informational Supplement, M07-A9, Volume 32, No. 2, 2012). Molten Mueller Hinton Agar (BD, USA) containing serial dilutions of each antibacterial agent were poured on to the plates and allowed to solidify. Appropriate suspensions from the freshly grown cultures were prepared in normal saline so that about 10^4 CFU/spot of the organism was delivered on to the drug containing agar plates using automated multipoint inoculator (Mast, UK). The plates were incubated in Biochemical oxygen demand (BOD) incubator at 37° C. for 18 hours and then examined for growth.
(§4) The strains selected for study included E. coli NCTC 13353 producing CTX-M15 and OXA-1 beta-lactamase enzymes; K. pneumoniae H521 producing KPC, SHV, TEM beta-lactamase enzymes; and K. pneumoniae S48 producing NDM, SHV, TEM beta-lactamase enzymes. The activities are expressed as Minimum Inhibitory Concentrations (MICs) (mcg/ml).

[3] = tested on: T2, Class C beta-lactamase, E. coli M50 (CMY/DHA); assay type: biochemical; conditions: read-out: Beta-lactamase enzyme inhibition IC50
T2 construct: no borders, tags or purification printed
Description: as §1, §2

[4] = tested on: K. pneomoniae S48 (NDM, SHV, TEM); assay: Antibacterial activity, MIC by agar dilution (CLSI); assay type: cell-based, K. pneumoniae
Description: as §3, §4

[5] = tested on: E. coli NCTC 13353 (CTX-M15, OXA-1); assay: as above; assay type: cell-based
Description: as §3
as §4, with “Table 2 details the antibacterial activity of representative compounds according to invention, against various Multi Drug Resistant (MDR) Gram-negative bacterial strains. The strains” for “The strains”

[6] = target: T3, Class D beta-lactamase, A. baumannii NCTC 13301 (OXA 23) (Acinetobacter baumannii, UniProt Q9L4P2); assay: Beta-lactamase enzyme inhibition (nitrocefin, crude enzyme); assay type: biochemical
T3 construct: preincubated mixture of crude enzyme and the agents; endogenous in cells; host or cells: A. baumannii NCTC 13301
Description: as §1, §2

[7] = Klebsiella pneumoniae, Table 2, K. pneumoniae H521 (KPC, SHV, TEM), read-out: MIC
[8] = Klebsiella pneumoniae, Table 2, K. pneomoniae S48 (NDM, SHV, TEM), read-out: MIC
[9] = Escherichia coli, NCTC13353, Table 2, E. Coli NCTC 13353 (CTX-M15, OXA-1), read-out: MIC
[10] = Class D A. baumannii NCTC 13301 (OXA 23), read-out: Beta-lactamase enzyme inhibition IC50
[11] = Table 2, K. pneomoniae S48 (NDM, SHV, TEM)
[12] = Table 2, E. Coli NCTC 13353 (CTX-M15, OXA-1)

T1 sequence (P0AD64 22-286 R39S/G234A/E235K): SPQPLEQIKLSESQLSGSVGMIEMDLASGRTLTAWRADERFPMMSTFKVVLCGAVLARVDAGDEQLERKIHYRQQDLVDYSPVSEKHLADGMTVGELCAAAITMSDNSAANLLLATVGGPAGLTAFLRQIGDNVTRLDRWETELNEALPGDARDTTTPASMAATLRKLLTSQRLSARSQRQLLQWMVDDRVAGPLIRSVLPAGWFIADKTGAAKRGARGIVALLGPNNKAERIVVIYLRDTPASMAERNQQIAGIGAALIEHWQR
T3 sequence (Q9L4P2 18-273): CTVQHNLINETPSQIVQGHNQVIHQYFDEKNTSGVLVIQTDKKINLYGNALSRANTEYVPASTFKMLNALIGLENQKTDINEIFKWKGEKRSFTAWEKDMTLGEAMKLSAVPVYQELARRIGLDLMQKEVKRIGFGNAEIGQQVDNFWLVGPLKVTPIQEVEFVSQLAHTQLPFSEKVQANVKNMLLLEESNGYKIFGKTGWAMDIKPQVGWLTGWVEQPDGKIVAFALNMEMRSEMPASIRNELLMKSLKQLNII

| Molecule | IC50 [1] [nM] | MIC [2, 7] [µg/mL] | IC50 [3] [nM] | MIC [4, 8] [µg/mL] | MIC [5, 9] [µg/mL] | IC50 [6, 10] [nM] | further results |
| --- | --- | --- | --- | --- | --- | --- | --- |
| CC(C)[C@@H](N)COc1ccc(CC(=O)NNC(=O)[C@@H]2CC[C@@H]3CN2C(=O)N3OS(=O)(=O)O)c(F)c1 [Example 46, (2S,5R)-sulfuric acid mono-[2-(N′-{2-[2-fluoro-4-((R)-2-amino-3-methyl-butoxy)-phenyl]-acetyl}-hydrazinocarbonyl)-7-oxo-1,6-diaza-bicyclo[3.2.1]oct-6-yl]ester] | 79 | 4 (≈ 7.73 µM) | 266 | 4 (≈ 7.73 µM) | 2 (≈ 3.86 µM) | 4100 | – |
| sodium salt of (2S,5R)-sulfuric acid mono-[2-(N′-(3,3-diphenyl-propionyl)-hydrazinocarbonyl)-7-oxo-1,6-diaza-bicyclo[3.2.1]oct-6-yl]ester [Example 7] | – | – | 14 | – | – | 89 | MIC ([2]; Table 2, K. pneumoniae H521 (KPC, SHV, TEM)): >32 µg/mL; MIC [4, 11]: >32 µg/mL; MIC [5, 12]: >32 µg/mL |
| O=C(Cc1cccc(OC[C@@H]2CCCN2)c1)NNC(=O)[C@@H]1CC[C@@H]2CN1C(=O)N2OS(=O)(=O)O [Example 58, (2S,5R)-sulfuric acid mono-[2-(N′-{2-[3-((S)-pyrrolidin-2-ylmethoxy)-phenyl]-acetyl}-hydrazinocarbonyl)-7-oxo-1,6-diaza-bicyclo[3.2.1]oct-6-yl]ester] | 53 | 2 (≈ 4.02 µM) | 37 | 0.5 (≈ 1 µM) | 1 (≈ 2.01 µM) | 1470 | – |
| C[C@H](N)COc1cccc(CC(=O)NNC(=O)[C@@H]2CC[C@@H]3CN2C(=O)N3OS(=O)(=O)O)c1 [Example 41, (2S,5R)-sulfuric acid mono-[2-(N′-{2-[3-((S)-2-amino-propoxy)-phenyl]-acetyl}-hydrazinocarbonyl)-7-oxo-1,6-diaza-bicyclo[3.2.1]oct-6-yl]ester] | 38 | 1 (≈ 2.12 µM) | 53 | 0.5 (≈ 1.06 µM) | 0.5 (≈ 1.06 µM) | 990 | – |
| O=C(Cc1ccccc1O[C@H]1CCNC1)NNC(=O)[C@@H]1CC[C@@H]2CN1C(=O)N2OS(=O)(=O)O [Example 63, (2S,5R)-sulfuric acid mono-[2-(N′-{2-[2-((S)-pyrrolidin-3-oxy)-phenyl]-acetyl}-hydrazinocarbonyl)-7-oxo-1,6-diaza-bicyclo[3.2.1]oct-6-yl]ester] | 79 | 8 (≈ 16.5 µM) | 102 | 2 (≈ 4.14 µM) | 2 (≈ 4.14 µM) | 4120 | – |
| O=C(Cc1ccccc1OC[C@H]1CCCN1)NNC(=O)[C@@H]1CC[C@@H]2CN1C(=O)N2OS(=O)(=O)O [Example 57, (2S,5R)-sulfuric acid mono-[2-(N′-{2-[2-((R)-pyrrolidin-2-ylmethoxy)-phenyl]-acetyl}-hydrazinocarbonyl)-7-oxo-1,6-diaza-bicyclo[3.2.1]oct-6-yl]ester] | 125 | 4 (≈ 8.04 µM) | 105 | 2 (≈ 4.02 µM) | 2 (≈ 4.02 µM) | 3290 | – |
| Nc1ccc(CC(=O)NNC(=O)[C@@H]2CC[C@@H]3CN2C(=O)N3OS(=O)(=O)O)cc1 [Example 11, (2S,5R)-sulfuric acid mono-[2-(N′-(4-aminophenyl-acetyl)-hydrazinocarbonyl)-7-oxo-1,6-diaza-bicyclo[3.2.1]oct-6-yl]ester] | 32 | – | 10 | – | – | 408 | MIC ([2]; Klebsiella pneumoniae): 1 µg/mL (≈ 2.42 µM); MIC ([4]; Klebsiella pneumoniae): 1 µg/mL (≈ 2.42 µM); MIC ([5]; Escherichia coli, NCTC13353): 0.5 µg/mL (≈ 1.21 µM) |
| Nc1ccccc1CC(=O)NNC(=O)[C@@H]1CC[C@@H]2CN1C(=O)N2OS(=O)(=O)O [Example 21, (2S,5R)-sulfuric acid mono-[2-(N′-(2-aminophenyl-acetyl)-hydrazinocarbonyl)-7-oxo-1,6-diaza-bicyclo[3.2.1]oct-6-yl]ester] | 35 | – | 34 | – | – | 4510 | MIC ([2]; Klebsiella pneumoniae): 16 µg/mL (≈ 38.7 µM); MIC ([4]; Klebsiella pneumoniae): 16 µg/mL (≈ 38.7 µM); MIC ([5]; Escherichia coli, NCTC13353): 16 µg/mL (≈ 38.7 µM) |
| NCCCOc1cccc(CC(=O)NNC(=O)[C@@H]2CC[C@@H]3CN2C(=O)N3OS(=O)(=O)O)c1 [Example 35, (2S,5R)-sulfuric acid mono-[2-(N′-{2-[3-(3-amino-propoxy)-phenyl]-acetyl}-hydrazinocarbonyl)-7-oxo-1,6-diaza-bicyclo[3.2.1]oct-6-yl]ester] | 712 | 1 (≈ 2.12 µM) | 38 | 0.5 (≈ 1.06 µM) | 0.5 (≈ 1.06 µM) | 1910 | – |
| C[C@H](N)COc1ccc(CC(=O)NNC(=O)[C@@H]2CC[C@@H]3CN2C(=O)N3OS(=O)(=O)O)c(F)c1 [Example 44, (2S,5R)-sulfuric acid mono-[2-(N′-{2-[2-fluoro-4-((S)-2-amino-propoxy)-phenyl]-acetyl}-hydrazinocarbonyl)-7-oxo-1,6-diaza-bicyclo[3.2.1]oct-6-yl]ester] | 58 | 2 (≈ 4.09 µM) | 31 | 1 (≈ 2.04 µM) | 1 (≈ 2.04 µM) | 561 | – |
| O=C(O)[C@H]1/C(=C/CO)O[C@@H]2CC(=O)N21 [Clavulanic acid, clavulanic acid, reference compound] | – | – | > 10000 | – | – | – | – |
| sodium salt of (2S,5R)-succinic acid tert-butyl ester 4-{2-oxo-2-[N′-(7-oxo-6-sulphooxy-1,6-diaza-bicyclo[3.2.1]octane-2-carbonyl)-hydrazino]ethyl}-phenyl ester [Example 27] | – | – | 14 | – | – | 498 | MIC [4, 11]: 8 µg/mL; MIC [5, 12]: 2 µg/mL |
| Nc1ccc(CC(=O)NNC(=O)[C@@H]2CC[C@@H]3CN2C(=O)N3OS(=O)(=O)O)c(F)c1 [Example 17, (2S,5R)-sulfuric acid mono-[2-(N′-(4-amino-2-fluorophenyl-acetyl)-hydrazinocarbonyl)-7-oxo-1,6-diaza-bicyclo[3.2.1]oct-6-yl]ester] | – | 4 (≈ 9.27 µM) | 14 | 1 (≈ 2.32 µM) | 1 (≈ 2.32 µM) | 194 | – |
| CC(C)(C)C(=O)Oc1ccc(CC(=O)NNC(=O)[C@@H]2CC[C@@H]3CN2C(=O)N3OS(=O)(=O)O)cc1 [Example 22, sodium salt of 2,2-dimethyl-propionic acid 4-{2-oxo-2-[N′-((2S,5R)-7-oxo-6-sulphooxy-1,6-diaza-bicyclo[3.2.1]octane-2-carbonyl)-hydrazino]ethyl}-phenyl ester] | 25 | – | – | – | – | 973 | MIC ([2]; Klebsiella pneumoniae, 18 h, Table 2, K. pneumoniae H521 (KPC, SHV, TEM), read-out: MIC): 32 µg/mL; MIC ([4]; Klebsiella pneumoniae, 18 h, Table 2, K. pneomoniae S48 (NDM, SHV, TEM), read-out: MIC): 32 µg/mL; MIC ([5]; Escherichia coli, NCTC13353, 18 h, Table 2, E. Coli NCTC 13353 (CTX-M15, OXA-1), read-out: MIC): 16 µg/mL |
| O=C(Cc1ccc(OC(=O)NC2CCCCC2)cc1)NNC(=O)[C@@H]1CC[C@@H]2CN1C(=O)N2OS(=O)(=O)O [Example 28, sodium salt of (2S,5R)-cyclohexyl-carbamic acid 4-{2-oxo-2-[N′-(7-oxo-6-sulphooxy-1,6-diaza-bicyclo[3.2.1]octane-2-carbonyl)-hydrazino]ethyl}-phenyl ester] | 8 | – | – | – | – | – | MIC ([2]; Klebsiella pneumoniae, 18 h): 32 µg/mL; MIC ([4]; Klebsiella pneumoniae, 18 h): 16 µg/mL; MIC ([5]; Escherichia coli, NCTC13353, 18 h): 8 µg/mL; IC50 [6]: 243 nM |
